Reference: patent publication US6486098B1, “Herbicidal phenoxypropionic acid N-alkyl-N-2-fluorophenyl amide compounds” (Dongbu Hannong Chemical Co. Ltd., priority 1999, dated 2002)
Several values for one entry are separate records, joined by “and”; a condition that tells them apart may be missing. Equal entries are not always repeated.

How the values were obtained:
[1] = tested on: ZEAMX (Corn); experiment: Leaf treatment test, corn; type: in vivo, Zea mays L.; settings: 14 days after treatment
Procedure: (§1) Seeds of rice, wheat, barley, corn, cotton, barnyard grass, common sorgum, large crabgrass and fall panicum were seeded at a pot with a surface area of 600 cm^2. […] 14 days after the treatment, the degree of damage to the plants was rated in % damage in comparison to the development of untreated control.

[2] = tested on: GLXMA (Soy bean); experiment: Leaf treatment test, soy bean; type: in vivo, Glycine max (L.) MERR; settings: 14 days after treatment
[3] = tested on: GOSHI (Cotton); experiment: Leaf treatment test, cotton; type: in vivo, Gossypium; settings: 14 days after treatment
Procedure: as §1

[4] = tested on: TRZAW (Wheat); experiment: Leaf treatment test, wheat; type: in vivo, Triticum aestivum L.; settings: treated amount 0.025 kg/ha, 14 days after treatment
Procedure: as §1

[5] = tested on: ORYSA (Rice); experiment: Leaf treatment test, rice; type: in vivo, Oryza sativa L. cv. Dongjin; settings: 14 days after treatment
Procedure: as §1

[6] = tested on: SORBI (Common sorgum); experiment: Leaf treatment test, common sorgum; type: in vivo, Andropogon sorghum; settings: 14 days after treatment
Procedure: as §1

[7] = tested on: ECHCG (Barnyard grass); experiment: Leaf treatment test, barnyard grass; type: in vivo, Echinochloa crus-galli Beauv. var. caudata Kitagawa; settings: leaf treatment at three leaves, 14 days after treatment
Procedure: as §1

[8] = tested on: DIGSA (Large crabgrass); experiment: Leaf treatment test, large crabgrass; type: in vivo, Digitaria Sanguinalis (L.) SCOP; settings: 14 days after treatment
Procedure: as §1

[9] = tested on: PANDI (Fall panicum); experiment: Leaf treatment test, fall panicum; type: in vivo, Panicum dichotomiflorum Michx; settings: 14 days after treatment
Procedure: as §1

[10] = tested on: barnyard grass (ECHOR); experiment: Experimental Example 2, herbicidal effect on barnyard grass ECHOR; type: in vivo, Ecliinocgloa crus-galli Beauv. var. orygicola Ohwi; settings: 1˜2 tillering, 200 g a.i per hactare on the leaves, Tech. 98%
Description: (§2) Rice[Oryza sativa. L. cv.
(§3) The result is represented in the following table 8.

[11] = tested on: barnyard grass (ECHCG); experiment: Experimental Example 2, herbicidal effect on barnyard grass ECHCG; type: in vivo, Eclzinocgloa crus-galli beauv. var. caudate Kitagawa; settings: 1˜2 tillering, 200 g a.i per hactare on the leaves, Tech. 98%
Description: as §2, §3

[12] = tested on: Rice (ORYSA); settings: 6.0˜6.5 leaves, 200 g a.i per hactare on the leaves, Tech. 98%
Procedure: Rice[Oryza sativa. L. cv. Chuchong(ORYSA)] and barnyard grass [Eclzinocgloa crus-galli beauv. var. caudate Kitagawa(ECHCG) and Ecliinocgloa crus-galli Beauv. var. orygicola Ohwi (ECHOR)] were planted and grown. The test compounds with 98% purity was dissolved in acetone containing tween-20 and diluted with water. Each maximum concentration of acetone and tween-20 were 25% and 0.1%.
The solution was sprayed in a proportion of 200 g a.i per hactare on the leaves. When rice{ORYSA} had 6.0˜6.5 leaves with 32.8 cm of the first leaf, barnyard grass(ECHOR) had 1˜2 tillering with 37.3 cm of the first leaf and barnyard grass(ECHCG) had 1˜2 tillering with 44.4 cm of the first leaf.
20 and 30 days after treatment (DAT) herbicidal effect and toxicity were measured.

CC(Oc1ccc(Oc2nc3ccc(Cl)cc3o2)cc1)C(=O)Nc1ccccc1F (stereo not shown) [control 1, 2-[4-(6-Chloro-2-benzoxazoyloxy)-phenoxy]propionic Acid-N-(2-fluorophenyl)amide, reference compound]
degree of damage to the plants (% damage) ([1]; treated amount 0.025 kg/ha): 100% and 80%
degree of damage to the plants (% damage) ([1]; treated amount 0.1 kg/ha): 100%
degree of damage to the plants (% damage) ([1]; treated amount 0.4 kg/ha): 100%
degree of damage to the plants (% damage) ([2]; treated amount 0.025 kg/ha): 0%
degree of damage to the plants (% damage) ([2]; treated amount 0.4 kg/ha): 40% and 30%
degree of damage to the plants (% damage) ([3]; treated amount 0.025 kg/ha): 0%
degree of damage to the plants (% damage) ([3]; treated amount 0.1 kg/ha): 0%
degree of damage to the plants (% damage) ([3]; treated amount 0.4 kg/ha): 0%
degree of damage to the plants (% damage) [4]: 0%
degree of damage to the plants (% damage) ([5]; treated amount 0.025 kg/ha): 35% and 40%
degree of damage to the plants (% damage) ([5]; treated amount 0.1 kg/ha): 50% and 70%
degree of damage to the plants (% damage) ([5]; treated amount 0.4 kg/ha): 70% and 90%
degree of damage to the plants (% damage) ([6]; treated amount 0.025 kg/ha): 100%
degree of damage to the plants (% damage) ([6]; treated amount 0.1 kg/ha): 100%
degree of damage to the plants (% damage) ([6]; treated amount 0.4 kg/ha): 100%
degree of damage to the plants (% damage) ([7]; treated amount 0.025 kg/ha): 100%
degree of damage to the plants (% damage) ([7]; treated amount 0.1 kg/ha): 100%
degree of damage to the plants (% damage) ([7]; treated amount 0.4 kg/ha): 100%
degree of damage to the plants (% damage) ([8]; treated amount 0.025 kg/ha): 100%
degree of damage to the plants (% damage) ([8]; treated amount 0.1 kg/ha): 100%
degree of damage to the plants (% damage) ([8]; treated amount 0.4 kg/ha): 100%
degree of damage to the plants (% damage) ([9]; treated amount 0.025 kg/ha): 100% and 95%
degree of damage to the plants (% damage) ([9]; treated amount 0.1 kg/ha): 100%
degree of damage to the plants (% damage) ([9]; treated amount 0.4 kg/ha): 100%
activity (0˜100), 20 DAT ECHOR [10]: 100
activity (0˜100), 20 DAT ECHCG [11]: 100
toxicity (0˜100) 20 DAT ([12]; 20 DAT): 22
toxicity (0˜100) 30 DAT ([12]; 30 DAT): 39
